Read-outs that look alike come from different tables or passages of the source.
Experiments:
[1] = molecular target: T1, Human cytomegalovirus DNA polymerase (Human cytomegalovirus, UniProt P08546); assay: HCMV polymerase assay (AlphaLISA, IC50); format: biochemical; settings: polymerase assay of Example 190
T1 construct: made in house; host or cells: SF21 insect cells (baculovirus vector)
Procedure: (§1) Human cytomegalovirus and varicella zoster virus DNA polymerases were expressed via baculovirus vector in SF21 cells and purified. Heterodimeric nucleic acid substrate used in the herpesvirus polymerase reactions was generated by annealing a 59-mer template to a 17-mer digoxigenin-labeled primer. Polymerase (HCMV final concentration of 0.2 nM; VZV final concentration of 0.4 nM) was combined with an inhibitor compound or DMSO in assay buffer (10 mM HEPES, pH 7.5, 25 mM KCl, 25 mM NaCl, 5 mM MgCl2, 5% glycerol, 0.67 mg/ml bovine serum albuminutes, and 1 mM tris(2-carboxyethyl)phosphine), and this mixture was pre-incubated for 30 minutes at room temperature in 384-well microtiter plates. The polymerization reaction was initiated by the addition of template/primer substrate (final concentration: 1.6 nM), and dNTPs (final concentration: 24 nM dCTP, 24 nMdGTP, 16 nM dATP, 16 nM dTTP, and 0.8 nM biotin-dUTP). After 60 minutes incubation at 37° C., reactions were terminated with quench buffer (25 mM HEPES pH 7.5, 100 mM NaCl, 0.25% Tween-20, 12 mM EDTA, and 1 mg/ml bovine serum albumin). Incorporation of biotinylated UTP was detected with 2.5-5 ug/ml anti-DIG AlphaLISA acceptor beads and 5-10 ug/ml streptavidin AlphaLISA donor beads (Perkin Elmer). Compound effects were normalized to the window defined by the controls (DMSO only and pre-quenched wells), and were fit using a 4-parameter algorithm to report an IC50.

[2] = molecular target: T2, varicella zoster virus DNA polymerase (Varicella-zoster virus, UniProt P09252); assay: VZV polymerase assay (AlphaLISA, IC50); format: biochemical; settings: polymerase assay of Example 190
T2 construct: made in house; host or cells: SF21 insect cells (baculovirus vector)
T2 sequence (P09252 whole entry): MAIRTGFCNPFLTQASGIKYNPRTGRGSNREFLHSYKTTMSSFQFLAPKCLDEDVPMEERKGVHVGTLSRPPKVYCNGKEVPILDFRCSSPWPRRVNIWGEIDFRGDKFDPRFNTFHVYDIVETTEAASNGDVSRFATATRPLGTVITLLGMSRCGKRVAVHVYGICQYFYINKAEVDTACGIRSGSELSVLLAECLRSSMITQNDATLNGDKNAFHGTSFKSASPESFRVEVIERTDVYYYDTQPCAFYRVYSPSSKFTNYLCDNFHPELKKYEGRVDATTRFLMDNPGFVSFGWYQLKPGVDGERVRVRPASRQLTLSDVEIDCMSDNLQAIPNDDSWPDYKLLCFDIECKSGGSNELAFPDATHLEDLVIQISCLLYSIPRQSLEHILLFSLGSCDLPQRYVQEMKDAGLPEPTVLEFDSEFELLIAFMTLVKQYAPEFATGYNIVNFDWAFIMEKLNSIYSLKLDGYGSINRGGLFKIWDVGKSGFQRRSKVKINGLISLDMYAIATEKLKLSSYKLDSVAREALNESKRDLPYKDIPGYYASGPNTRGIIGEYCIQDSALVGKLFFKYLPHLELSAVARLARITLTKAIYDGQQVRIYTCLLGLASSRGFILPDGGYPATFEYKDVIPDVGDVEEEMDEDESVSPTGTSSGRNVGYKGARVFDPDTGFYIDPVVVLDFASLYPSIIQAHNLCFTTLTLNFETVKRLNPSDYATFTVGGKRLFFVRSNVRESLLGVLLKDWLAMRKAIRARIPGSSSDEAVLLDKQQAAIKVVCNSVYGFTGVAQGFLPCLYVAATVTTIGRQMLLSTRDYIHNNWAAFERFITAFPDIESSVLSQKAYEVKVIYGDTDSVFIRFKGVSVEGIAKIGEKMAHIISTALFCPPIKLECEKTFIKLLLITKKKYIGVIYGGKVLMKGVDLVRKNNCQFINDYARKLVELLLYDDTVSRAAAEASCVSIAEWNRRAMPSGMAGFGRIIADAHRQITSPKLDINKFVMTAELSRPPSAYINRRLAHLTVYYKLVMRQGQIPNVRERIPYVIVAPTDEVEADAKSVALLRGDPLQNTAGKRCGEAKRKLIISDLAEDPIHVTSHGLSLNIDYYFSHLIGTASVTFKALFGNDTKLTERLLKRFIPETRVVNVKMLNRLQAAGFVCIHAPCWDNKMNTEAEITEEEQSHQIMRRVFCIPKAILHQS
Procedure: as §1

[3] = test system: HCMV Strain AD169 in MRC-5 cells; assay: Viral qPCR assay HCMV (V0/V1, V2/V3), EC50; format: cell-based; settings: Human betaherpesvirus 5, AD169, MRC5, viral qPCR assay of Example 191; read-out: HCMV Cell (EC50)
Procedure: (§2) Viral qPCR Assays (V0/V1)
(§3) MRC5 cells, Vero cells, and MeWo cells were obtained from ATCC and were maintained at 37° C./5% CO2/90% relative humidity in Minimal Essential Medium with 10% fetal bovine serum, […] L-glutamine, 100 units/ml penicillin and 100 ug/ml streptomycin. Assay plates were prepared by dispensing compounds dissolved in DMSO into wells of 384 well collagen-coated plates using an ECHO acoustic dispenser. Each compound was tested in a 10-point, serial 3-fold dilution. Controls included uninfected cells and infected cells treated only with DMSO. Assays were initiated by mixing selected cells, in suspension, with virus, and dispensing 50 μl/well infected cells to pre-plated compounds. Plates were incubated at 37° C./5% CO2/90% relative humidity for ˜72 hrs to permit genomic replication, and infected cells were lysed by the addition of an equal volume of lysis buffer (10 mM Tris-HCl, pH8, 50 mM KCl, 2 mM MgCl2, 0.45% NP-40, 0.45% Tween-20, and 100 μg/ml proteinase K). An aliquot of the lysate was transferred to a 384-well PCR plate and incubated at 56° C. for 1 hour and then at 95° C. for 10 min. Levels of a viral gene and of the cellular control, PPIA (Thermo Fisher Assay ID=Hs04194521_s1), were measured in separate 10 μL qPCR assays using TaqMan® Gene Expression Master Mix (Applied Biosystems), and an 7900HT Fast Real-Time PCR System with 384-Well Block Module. 7-point, serial 10-fold dilutions of a plasmid standard were run on each plate to generate a standard curve, and genome copies numbers were calculated by plotting experimental Ct onto linear regression of the standard curve. Viral genome copy numbers were normalized by cellular control copy number, and compound effects were normalized to the window defined by the controls. Calculated % effects were fit using a 4-parameter algorithm, and EC50 was reported.
(§4) Viral qPCR Assays (V2/V3)
as §3, with “gene” for “gene and of the cellular control, PPIA (Thermo Fisher Assay ID=Hs04194521_s1),”, “in” for “in separate”, “Compound effects on viral” for “Viral”, “number” for “numbers were normalized by cellular control copy number, and compound effects”, “reported. • HCMV: Strain AD169 Street was assayed in MRC-5 cells and was used at 0.05-0.1 pfu/cell. The assays were performed in either growth media or in the same media with 50% fetal bovine serum. Primer-probe set was Thermo Fisher Assay ID=AIFATFK. • VZV: Strain Street was maintained as an infected cell stock in MRC-5 cells. It was assayed in MeWo or MRC5 cells and was used at 0.04-0.1 pfu/cell. […]” for “reported.”

[4] = test system: HSV-1 Strain F in Vero or MRC5 cells; assay: Viral qPCR assay HSV-1 (V0/V1, V2/V3), EC50; format: cell-based; settings: 10%
Procedure: as §2, §3, §4
as §3, with “gene” for “gene and of the cellular control, PPIA (Thermo Fisher Assay ID=Hs04194521_s1),”, “in” for “in separate”, “Compound effects on viral” for “Viral”, “number” for “numbers were normalized by cellular control copy number, and compound effects”, “reported. • HCMV: Strain AD169 Street was assayed in MRC-5 cells and was used at 0.05-0.1 pfu/cell. The assays were performed in either growth media or in the same media with 50% fetal bovine serum. Primer-probe set was Thermo Fisher Assay ID=AIFATFK. • VZV: Strain Street was maintained as an infected cell stock in MRC-5 cells. It was assayed in MeWo or MRC5 cells and was used at 0.04-0.1 pfu/cell. […]” for “reported.”

[5] = test system: VZV in MeWo or MRC5 cells; assay: Viral qPCR assay VZV (V0/V1, V2/V3), EC50; format: cell-based; settings: Human alphaherpesvirus 3, MRC5, MRC5 cells, 10%; read-out: VZV Cell (EC50) MRC5 10%
Procedure: as §2, §3, §4
as §3, with “gene” for “gene and of the cellular control, PPIA (Thermo Fisher Assay ID=Hs04194521_s1),”, “in” for “in separate”, “Compound effects on viral” for “Viral”, “number” for “numbers were normalized by cellular control copy number, and compound effects”, “reported. • HCMV: Strain AD169 Street was assayed in MRC-5 cells and was used at 0.05-0.1 pfu/cell. The assays were performed in either growth media or in the same media with 50% fetal bovine serum. Primer-probe set was Thermo Fisher Assay ID=AIFATFK. • VZV: Strain Street was maintained as an infected cell stock in MRC-5 cells. It was assayed in MeWo or MRC5 cells and was used at 0.04-0.1 pfu/cell. […]” for “reported.”

[6] = Human alphaherpesvirus 1, Vero, VERO cells, read-out: HSV1 Cell (EC50) VERO 10%
[7] = Human alphaherpesvirus 1, MRC5, MRC5 cells, read-out: HSV1 Cell (EC50) MRC5 10%

T1 sequence (P08546 whole entry): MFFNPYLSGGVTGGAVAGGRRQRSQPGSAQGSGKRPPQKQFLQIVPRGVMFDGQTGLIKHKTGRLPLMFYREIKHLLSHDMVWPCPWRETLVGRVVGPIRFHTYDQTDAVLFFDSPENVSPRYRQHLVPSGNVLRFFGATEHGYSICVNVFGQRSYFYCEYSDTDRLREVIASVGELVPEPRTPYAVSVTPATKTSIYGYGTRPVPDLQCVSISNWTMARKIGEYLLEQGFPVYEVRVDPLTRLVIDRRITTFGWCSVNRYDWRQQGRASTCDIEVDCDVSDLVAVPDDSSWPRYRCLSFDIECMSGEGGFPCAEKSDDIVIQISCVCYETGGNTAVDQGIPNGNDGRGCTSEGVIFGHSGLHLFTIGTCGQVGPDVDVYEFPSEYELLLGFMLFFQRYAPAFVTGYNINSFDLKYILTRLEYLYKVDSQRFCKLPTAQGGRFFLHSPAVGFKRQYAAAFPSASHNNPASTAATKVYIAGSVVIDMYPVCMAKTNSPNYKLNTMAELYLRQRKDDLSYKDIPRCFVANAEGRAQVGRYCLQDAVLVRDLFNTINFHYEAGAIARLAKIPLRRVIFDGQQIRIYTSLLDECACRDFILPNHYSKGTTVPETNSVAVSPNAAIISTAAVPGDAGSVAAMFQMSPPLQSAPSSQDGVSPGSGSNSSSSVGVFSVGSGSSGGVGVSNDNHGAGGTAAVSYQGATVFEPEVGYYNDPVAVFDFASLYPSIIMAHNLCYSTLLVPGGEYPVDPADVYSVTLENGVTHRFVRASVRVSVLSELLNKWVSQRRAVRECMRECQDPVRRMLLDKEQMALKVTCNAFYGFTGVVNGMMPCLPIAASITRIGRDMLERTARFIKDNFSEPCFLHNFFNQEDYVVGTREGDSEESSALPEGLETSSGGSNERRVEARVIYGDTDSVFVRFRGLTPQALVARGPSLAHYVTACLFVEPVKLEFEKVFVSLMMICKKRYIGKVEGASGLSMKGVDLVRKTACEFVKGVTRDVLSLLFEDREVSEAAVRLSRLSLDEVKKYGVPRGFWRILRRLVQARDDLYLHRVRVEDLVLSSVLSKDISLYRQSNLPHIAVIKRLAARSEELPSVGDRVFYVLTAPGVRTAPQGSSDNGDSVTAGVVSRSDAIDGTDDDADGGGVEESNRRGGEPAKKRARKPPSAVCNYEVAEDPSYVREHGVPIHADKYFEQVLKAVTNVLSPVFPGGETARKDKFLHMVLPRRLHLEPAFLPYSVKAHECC

IC50 [1] | IC50 [2] | SMILES | EC50 [3] | EC50 [4, 6] | EC50 [5] | EC50 [4, 7]
56.6 nM | 18.4 nM | O=C(NCc1ccc(Cl)cc1)c1cc(O[C@H]2CCN3C(=O)OC[C@@H]3C2)c(CC2CCCO2)cn1 (mixture of isomers) [Compound 113] | 357 nM | 227 nM |  | 
13.9 nM | 4.44 nM | O=C(NCc1ccc(Cl)cc1)c1cc(O[C@@H]2CCN3C(=O)OC[C@H]3C2)c(-c2cn[nH]c2)cn1 (racemic) [Compound 25] | 259 nM | 1670 nM |  | 
59.1 nM | 20.3 nM | O=C(NCc1ccc(Cl)cc1)c1cc(O[C@H]2CCN3C(=O)OC[C@@H]3C2)c(-c2ncco2)cn1 [Compound 4] | 292 nM | 210 nM |  | 
68.8 nM |  | CC(=O)N1CCC(Oc2cc(C(=O)NCc3ccc(Cl)cc3)ncc2-c2ccn(CS(C)(=O)=O)n2)CC1 [Compound 56] | 687 nM |  | 1430 nM | 847 nM
172 nM | 119 nM | CC(=O)N1CCC(Oc2cc(C(=O)NCc3ccc(Cl)cc3)ncc2C#Cc2ccc(C)cn2)CC1 [Compound 71] | 1510 nM | 354 nM |  | 
68.8 nM | 51.8 nM | CC(=O)N1CCC(Oc2cc(C(=O)NCc3ccc(Cl)cc3)ncc2/C=C/CC(C)O)CC1 (stereo not drawn) [Compound 72] | 855 nM | 1110 nM |  | 
8.76 nM |  | O=C(NCc1cc(F)c(Cl)c(F)c1)c1cc(O[C@H]2CCN3C(=O)OC[C@@H]3C2)c(-c2cnn(C(F)F)c2)cn1 [Compound 80] | 248 nM |  | 401 nM | 247 nM
12 nM |  | O=C(NCc1ccc(Br)cc1)c1cc(O[C@H]2CCN3C(=O)OC[C@@H]3C2)c(-c2cnn(C(F)F)c2)cn1 [Compound 83] | 549 nM |  | 147 nM | 274 nM
65.3 nM |  | O=C(NCc1ccc(Cl)cc1Cl)c1cc(O[C@H]2CCN3C(=O)OC[C@@H]3C2)c(-c2cnn(C(F)F)c2)cn1 [Compound 85] | 888 nM |  | 4710 nM | 1640 nM
184 nM |  | C#Cc1ccc(CNC(=O)c2cc(O[C@H]3CCN4C(=O)OC[C@@H]4C3)c(-c3cnn(C(F)F)c3)cn2)cc1 [Compound 88] | 616 nM |  | 1180 nM | 785 nM
10.3 nM |  | O=C(NCc1ccc(Cl)c(F)c1F)c1cc(O[C@H]2CCN3C(=O)OC[C@@H]3C2)c(-c2cnn(C(F)F)c2)cn1 [Compound 92] | 227 nM |  | 339 nM | 200 nM
983 nM | 426 nM | Cn1cc(-c2cnc(C(=O)N3CCCC3c3ccc(Cl)cc3)cc2O[C@H]2CCN3C(=O)OC[C@@H]3C2)cn1 (stereo partly drawn) [Compound 100] |  |  |  | 
2020 nM | 1300 nM | CC(=O)N1CCC(Oc2cc(C)nc(C(=O)NCc3ccc(Cl)cc3)c2)CC1 [Compound 101] |  |  |  | 
84.8 nM |  | O=C(NCc1ccc(Cl)cc1)c1cc(O[C@H]2CCN3C(=O)OC[C@@H]3C2)c(N2CCOCC2)cn1 [Compound 116] | 791 nM |  | 3600 nM | 2420 nM
172 nM |  | C[C@@H]1CN(c2cnc(C(=O)NCc3ccc(Cl)cc3)cc2O[C@H]2CCN3C(=O)OC[C@@H]3C2)C[C@H](C)[C@]1(C)O [Compound 124] | 1270 nM |  | 6050 nM | 2850 nM
169 nM |  | N#Cc1cc(O[C@H]2CCN3C(=O)OC[C@@H]3C2)cc(C(=O)NCc2ccc(Cl)cc2)n1 [Compound 128] | 1780 nM |  | 5340 nM | 8330 nM
1.89 nM |  | O=C(NCc1ccc(Cl)cc1)c1cc(O[C@H]2CCN3C(=O)OC[C@@H]3C2)c(-c2cnc(CO)o2)cn1 [Compound 148b] | 102 nM |  | 220 nM | 116 nM
66.2 nM |  | CC(=O)N1CCC(Oc2cc(C(=O)NCc3ccc(Cl)cc3)ncc2-c2nnc(C)o2)CC1 [Compound 153] | 478 nM |  | 913 nM | 636 nM
128 nM |  | C[C@@H]1CN(C)CCN1c1cc(C(=O)NCc2ccc(C#N)cc2)ncc1C#N [Compound 172] | 419 nM |  | 4060 nM | 4190 nM
12.3 nM |  | CN1CCN(c2cc(C(=O)NCc3ccc(Cl)cc3)ncc2C#N)[C@H](CF)C1 [Compound 173] | 279 nM |  | 682 nM | 833 nM
36.5 nM |  | CN1CCN(c2cc(C(=O)NCc3ccc(C#N)cc3)ncc2C#N)[C@H](CF)C1 [Compound 174] | 472 nM |  | 1190 nM | 966 nM
29.2 nM |  | O=C(c1cc(O[C@H]2CCN3C(=O)OC[C@@H]3C2)c(-c2cnn(C(F)F)c2)cn1)N(CO)Cc1ccc(Cl)cc1 [Compound 180] | 183 nM |  | 265 nM | 176 nM
227 nM |  | O=C(OCN(Cc1ccc(Cl)cc1)C(=O)c1cc(O[C@H]2CCN3C(=O)OC[C@@H]3C2)c(-c2cnn(C(F)F)c2)cn1)C1CCOCC1 [Compound 182] | 148 nM |  | 213 nM | 105 nM
894 nM |  | CN1CCC(N2CCC(C(=O)OCN(Cc3ccc(Cl)cc3)C(=O)c3cc(O[C@H]4CCN5C(=O)OC[C@@H]5C4)c(-c4cnn(C(F)F)c4)cn3)CC2)CC1 [Compound 184] | 519 nM |  | 314 nM | 173 nM
25.2 nM |  | CC(C)[C@H](N)C(=O)OCN(Cc1ccc(Cl)cc1)C(=O)c1cc(O[C@H]2CCN3C(=O)OC[C@@H]3C2)c(-c2cnn(C(F)F)c2)cn1 [Compound 185] | 126 nM |  | 263 nM | 152 nM
